The target in assay [1] is PI3Kδ (p110δ/p85α) Recombinant Human Protein (Homo sapiens (Human), UniProt O00329). The experiment in a line: PI3Kδ Scintillation Proximity Assay. Format: biochemical. Particulars: 20 μM PIP2, 2 μM ATP, 3.4 nM PI3Kδ, 120 min. An outline of the steps: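 Recombinant p110δ/p85α (3.4 nM) with 20 μM PIP2, 2 μM ATP plus [γ-^33P]ATP, in 20 mM MOPS pH 6.7, 10 mM MgCl2, 5 mM DTT, 0.03% CHAPS, 2% DMSO; 120 min at room temperature. EDTA quench, WGA SPA beads, scintillation counting. IC50 from percent of solvent-control activity versus log concentration.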

Assay [2] deals with PI3Kγ (p110γ) Recombinant Human Protein (Homo sapiens (Human), UniProt P48736). The experiment in a line: PI3K-γ Scintillation Proximity Assay. Format: biochemical. Particulars: 20 μM PIP2, 2 μM ATP, 13 nM PI3Kγ, 120 min. An outline of the steps: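 Recombinant human p110γ (13 nM) phosphorylated 20 μM PIP2 with 2 μM ATP plus 0.5 μCi [γ-33P]ATP for 120 min at room temperature in 20 mM MOPS pH 6.7, 10 mM MgCl2, 5 mM DTT, 0.03% CHAPS, 2% DMSO. Product was captured on WGA SPA beads in EDTA quench and counted. IC50 was fitted from percent of solvent-control activity.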
Background: In a scintillation proximity assay essentially only radioactivity close to the scintillant gives light.

Assay [3] relates to Phosphorylated Ribosomal Protein S6 (RPS6) in THP-1 cells. The experiment in a line: THP-1 RPS6 ELISA Assay. It is filed as cell-based. The conditions noted are these: Homo sapiens, 2 hours compound, 10 nM MCP-1 for 15 minutes, Phospho-RPS6 ELISA, read-out: PI3Kγ_THP1_RPS6_ELISA IC50. The protocol: Example A. THP-1 RPS6 ELISA Assay To measure the Phosphorylated Ribosomal Protein S6 (RPS6) in cell lysates, THP-1 cells (Human Acute Monocytic Leukemia) are purchased from ATCC (Manassas, Va.) and maintained in RPMI with 10% FBS (Gibco/Life Technologies, Carlsbad, Calif.). For the assay, THP-1 cells are serum starved overnight in RPMI, then plated in RPMI (2×10^5 cells/well in 90 μL) into 96-well flat-bottom tissue culture treated plates (Corning, Corning, N.Y.), in the presence or absence of a concentration range of test compounds. Covered plates are incubated for 2 hours at 37° C., 5% CO2 then treated with or without 10 nM MCP-1 (MYBioSource, San Diego, Calif.) for 15 minutes at 37° C., 5% CO2. Plates are centrifuged at 1600 RPM and supernatants are removed. Cells are lysed in Lysis Buffer (Cell Signaling, Danvers, Mass.) with Protease Inhibitor (Calbiochem/EMD, Germany), PMSF (Sigma, St Louis Mo.), HALTS (Thermo Fisher, Rockford, Ill.) for 30 min on wet ice. Cell lysates are frozen at −80° C. before testing. The lysates are tested in the Human/Mouse/Rat Phospho-RPS6 ELISA (R&D Systems, Inc. Minn, Minn.). The plate is measured using a microplate reader (SpectraMax M5-Molecular Devices, LLC Sunnyvale, Calif.) set to 450 nm with a wavelength correction of 540. IC50 determination is performed by fitting the curve of inhibitor percent inhibition versus the log of the inhibitor concentration using the GraphPad Prism 5.0 software.

Structures can show the parent of a compound that is named as a salt.

Chain of PI3Kδ (p110δ/p85α) Recombinant Human Protein (O00329 whole entry): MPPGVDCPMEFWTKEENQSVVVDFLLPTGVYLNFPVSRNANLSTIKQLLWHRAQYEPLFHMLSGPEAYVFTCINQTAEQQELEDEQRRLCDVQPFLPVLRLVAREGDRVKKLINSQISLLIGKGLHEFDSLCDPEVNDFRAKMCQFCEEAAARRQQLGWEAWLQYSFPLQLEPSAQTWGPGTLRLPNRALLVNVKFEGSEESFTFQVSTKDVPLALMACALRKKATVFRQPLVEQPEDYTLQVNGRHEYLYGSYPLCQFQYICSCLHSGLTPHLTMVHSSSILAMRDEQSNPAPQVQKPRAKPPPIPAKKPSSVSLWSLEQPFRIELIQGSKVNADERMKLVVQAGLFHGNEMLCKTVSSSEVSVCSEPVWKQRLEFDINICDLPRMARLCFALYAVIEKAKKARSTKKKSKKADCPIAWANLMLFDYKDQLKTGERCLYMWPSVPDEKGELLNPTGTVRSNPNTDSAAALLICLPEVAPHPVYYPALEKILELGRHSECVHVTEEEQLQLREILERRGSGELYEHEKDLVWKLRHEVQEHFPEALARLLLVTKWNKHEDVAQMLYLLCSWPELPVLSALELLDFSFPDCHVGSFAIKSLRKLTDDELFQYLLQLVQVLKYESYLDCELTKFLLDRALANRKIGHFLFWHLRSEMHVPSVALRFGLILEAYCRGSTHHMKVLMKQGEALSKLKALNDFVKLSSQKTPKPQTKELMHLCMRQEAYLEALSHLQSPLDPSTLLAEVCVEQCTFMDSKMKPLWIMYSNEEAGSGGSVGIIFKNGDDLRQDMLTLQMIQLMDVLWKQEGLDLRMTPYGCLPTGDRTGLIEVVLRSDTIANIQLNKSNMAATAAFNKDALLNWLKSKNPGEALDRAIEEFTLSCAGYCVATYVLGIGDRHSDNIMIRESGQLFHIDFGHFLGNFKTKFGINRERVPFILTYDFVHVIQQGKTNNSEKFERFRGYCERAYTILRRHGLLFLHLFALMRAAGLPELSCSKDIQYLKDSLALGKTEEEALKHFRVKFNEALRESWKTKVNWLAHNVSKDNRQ
Chain of PI3Kδ (p110δ/p85α) Recombinant Human Protein (P27986 whole entry partner): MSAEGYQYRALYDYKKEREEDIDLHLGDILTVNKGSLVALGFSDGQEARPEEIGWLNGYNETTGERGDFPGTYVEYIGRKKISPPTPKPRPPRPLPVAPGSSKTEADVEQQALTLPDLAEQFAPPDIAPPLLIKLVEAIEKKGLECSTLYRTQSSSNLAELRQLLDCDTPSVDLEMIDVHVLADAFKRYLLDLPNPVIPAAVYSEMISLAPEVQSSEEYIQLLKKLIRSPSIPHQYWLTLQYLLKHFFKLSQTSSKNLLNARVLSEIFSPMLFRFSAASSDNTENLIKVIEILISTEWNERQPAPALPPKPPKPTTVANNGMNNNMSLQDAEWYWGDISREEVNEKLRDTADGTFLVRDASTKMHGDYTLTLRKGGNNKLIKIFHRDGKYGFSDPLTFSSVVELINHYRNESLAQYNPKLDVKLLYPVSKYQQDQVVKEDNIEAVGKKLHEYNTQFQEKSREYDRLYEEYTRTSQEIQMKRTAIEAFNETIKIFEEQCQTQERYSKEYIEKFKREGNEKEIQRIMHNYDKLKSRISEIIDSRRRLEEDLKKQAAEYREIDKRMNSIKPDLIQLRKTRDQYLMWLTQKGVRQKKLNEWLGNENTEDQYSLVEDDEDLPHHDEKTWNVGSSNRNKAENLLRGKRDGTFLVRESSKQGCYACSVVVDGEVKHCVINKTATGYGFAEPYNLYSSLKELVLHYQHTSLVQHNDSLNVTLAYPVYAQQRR
Chain of PI3Kγ (p110γ) Recombinant Human Protein (P48736 whole entry): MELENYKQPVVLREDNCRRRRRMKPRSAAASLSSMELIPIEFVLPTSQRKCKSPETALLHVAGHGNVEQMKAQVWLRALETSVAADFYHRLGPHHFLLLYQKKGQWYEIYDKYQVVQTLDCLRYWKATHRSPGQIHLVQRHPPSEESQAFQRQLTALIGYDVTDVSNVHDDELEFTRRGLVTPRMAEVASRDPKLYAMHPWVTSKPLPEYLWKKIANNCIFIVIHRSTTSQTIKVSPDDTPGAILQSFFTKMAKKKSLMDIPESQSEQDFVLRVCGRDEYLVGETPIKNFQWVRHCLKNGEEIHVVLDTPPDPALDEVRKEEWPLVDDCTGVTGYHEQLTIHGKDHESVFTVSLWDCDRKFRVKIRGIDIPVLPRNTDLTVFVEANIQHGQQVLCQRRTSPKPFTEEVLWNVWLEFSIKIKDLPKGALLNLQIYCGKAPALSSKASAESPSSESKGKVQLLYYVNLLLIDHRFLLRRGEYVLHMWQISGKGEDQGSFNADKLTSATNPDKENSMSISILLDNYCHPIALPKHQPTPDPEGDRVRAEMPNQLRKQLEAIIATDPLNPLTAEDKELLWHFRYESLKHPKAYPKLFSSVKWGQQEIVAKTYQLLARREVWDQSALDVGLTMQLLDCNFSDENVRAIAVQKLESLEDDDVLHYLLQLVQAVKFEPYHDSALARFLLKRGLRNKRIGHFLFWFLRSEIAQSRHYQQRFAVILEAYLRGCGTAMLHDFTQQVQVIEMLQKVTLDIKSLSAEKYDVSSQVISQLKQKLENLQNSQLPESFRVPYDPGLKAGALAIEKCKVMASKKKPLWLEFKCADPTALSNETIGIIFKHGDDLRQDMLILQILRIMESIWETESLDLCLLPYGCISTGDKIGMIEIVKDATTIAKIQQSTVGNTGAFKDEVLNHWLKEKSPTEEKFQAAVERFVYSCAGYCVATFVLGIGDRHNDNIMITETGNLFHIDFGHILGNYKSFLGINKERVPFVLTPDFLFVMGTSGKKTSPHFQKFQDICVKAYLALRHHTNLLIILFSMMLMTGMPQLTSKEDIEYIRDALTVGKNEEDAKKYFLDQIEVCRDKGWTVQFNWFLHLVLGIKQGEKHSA

A word on the IC50: it is the concentration at which inhibition is half-maximal. Take `C[C@@H](C1CC1)N1Cc2cc(-c3cnc4c(N)nc(-c5cnn(C)c5)cn34)cc(S(C)(=O)=O)c2C1=O` [Example 35, (S)-5-(8-Amino-6-(1-methyl-1H-pyrazol-4-yl)imidazo[1,2-a]pyrazin-3-yl)-2-(1-cyclopropylethyl)-7-(methylsulfonyl)isoindolin-1-one, trifluoroacetate salt]: the IC50 in assay [1] is at most 500 nM; in assay [2] it was at most 100 nM; in assay [3] it was at most 500 nM.

As to `C[C@@H](C1CC1)N1Cc2cc(-c3cnc4c(N)nc(C(=O)NC5CCOCC5O)cn34)ccc2C1=O` (mixture of isomers) [Example 32, 8-Amino-3-(2-((S)-1-cyclopropylethyl)-1-oxoisoindolin-5-yl)-N-(3-hydroxytetrahydro-2H-pyran-4-yl)imidazo[1,2-a]pyrazine-6-carboxamide, trifluoroacetate salt], the IC50 in assay [1] is at least 2000 nM; in assay [2], at most 100 nM; in assay [3], at least 1000 nM.

Take `C[C@@H](C1CC1)N1Cc2cc(-c3cnc4c(N)nc(C(F)(F)F)cn34)cc(Cl)c2C1=O` [Example 1, (S)-5-(8-Amino-6-(trifluoromethyl)imidazo[1,2-a]pyrazin-3-yl)-7-chloro-2-(1-cyclopropylethyl)isoindolin-1-one]: the figures for the IC50 in assay [1], in assay [2] and in assay [3] were under 2000 nM, at most 100 nM and at least 1000 nM, respectively.

Take `CC(C)N1Cc2cc(-c3cnc4c(N)ncnn34)ccc2C1=O` [Example 14, 5-(4-Aminoimidazo[2,1-f][1,2,4]triazin-7-yl)-2-isopropylisoindolin-1-one trifluoroacetate salt]: the figures for the IC50 in assay [1], in assay [2] and in assay [3] were at least 2000 nM, at most 100 nM and at least 1000 nM, respectively.

The values are drawn from patent US11078204B2, “Heterocyclic derivatives as PI3K inhibitors” (Incyte Corporation, priority 2018, dated 2021).
